Where a name gives a salt, the structure may show the parent alone.
Assays:
mouse models of HFpEF = test: Mouse models of HFpEF (high-fat diet + L-NAME), acute effect; assay type: in vivo; details: high-fat diet+L-NAME group
Procedure: Mouse models of HFpEF were prepared by high-fat diet and administration of L-NG-nitroarginine methyl ester (L-NAME) to test the effect of KUS121 on HFpEF. ICR mice were fed with normal diet and ultrapure water or high-fat diet and 0.5 g/L of L-NAME for 5 weeks.
Then, acute effect of KUS121 on HFpEF was tested. ICR mice fed with normal diet or high-fat diet+0.5 g/L of L-NAME were injected intraperitonially with 50 mg/kg of KUS121 and cardiac function was assessed by echocardiography before and 10 minutes after the injection. No difference in echocardiography was observed between the normal diet group and the high-fat diet+L-NAME group before injection of 5% glucose or KUS121 (FIG. 26). EF was not changed after […] in the control group and the high-fat diet+L-NAME group (FIG. 26, left and middle), but was increased after KUS121 injection in the high-fat diet+L-NAME group (FIG. 26, right).
Diastolic function was also tested. Global longitudinal strain (GLS), E/A, and E/E′ were assessed for evaluating cardiac diastolic function. Mice from the high-fat diet+L-NAME group had diastolic dysfunction as indicated by high levels of GLS, E/A, and E/E′ before KUS121 administration, the degree of which varied among the individual animals (FIG. 27).
To assess exercise tolerance, treadmill test (TMT) was performed.

[1] = test system: beagle dog models of heart failure; test: Beagle dog models of rapid ventricular pacing-induced heart failure; assay type: in vivo
Procedure: After induction of general anesthesia with thiopental sodium (20 mg/kg, i.v.: 0.5 g of Labonal injection, Nipro ES Pharma Corporation) in 10- to 12-month-old male beagle dogs (9.80-11.50 kg), a tracheal cannula was inserted into the airway, and artificial respiration was performed with an Acoma veterinary ventilator (PRO-45Va, Acoma Medical Corporation). Anesthesia was maintained by inhalation of a gas mixture (Air:O2=3:0.2) and 1.0 to 2.5% isoflurane (isoflurane inhalation solution “Pfizer”, Mylan Seiyaku Co., Ltd.) using an Acoma animal anesthesia machine (NS-5000A, Acoma Medical Industry Co., Ltd.) to maintain a constant depth of anesthesia. An incision was made in the right side of the neck of the animal, an animal internal cardiac pacemaker (SIP-501, Star Medical Corporation) was implanted subcutaneously, a retractable screw-in reed (Tendril STS J, St. Jude Medical, Inc.) was inserted through the right jugular vein under X-ray fluoroscopy (BV Pulsera, Koninklijke Philips N.V.), and the tip was implanted in the right ventricular wall. Pacing was started at 244-251 beats/min on postoperative day 1. Dogs with ejection fraction (EF) decreasing to 30-50% at 4 weeks after pacemaker activation were considered to have heart failure and subjected to analysis.
Echocardiography was performed using a general-purpose ultrasound imaging system (Vivid S6, GE Medical Systems). The left ventricular end-diastolic diameter (LVIDd), left ventricular end-systolic diameter (LVIDs), ejection fraction (EF), and left ventricular internal diameter shortening (% FS) were measured in M-mode by placing a sector probe (10 MHz) on the chest.
Dogs were anesthetized intravenously with 14.5 to 22.3 mg/kg of secobarbital sodium (Injectable Ionar sodium (0.2), Nichi-Iko Co., Ltd.), followed by subcutaneous administration of 0.2 mg/kg of meloxicam (Metacam 0.5% injection, Boehringer Ingelheim Animal Health Japan Co.). A tracheal tube was inserted into the airway and connected to an Acoma animal ventilator (PRO-45Va, Acoma Medical Industry Co., Ltd.). The ventilator was set at a respiratory rate of 14-18 strokes/min and a tidal volume of 10-20 mL/kg/stroke, and respiration was controlled by an Acoma animal anesthesia machine (NS-5000A, Acoma Medical Industry Co., Ltd.) using a gas mixture (FiO2=0.3-1.0). The exhaled CO2 partial pressure was monitored using an exhaled carbon dioxide monitor (OLG-2800, Nihon Kohden Corporation). The animals were fixed in the dorsal position and the thighs and neck were shom. Anesthesia was maintained by continuous intravenous infusion of sodium secobarbital (5 mg/kg/hr) through the radial cutaneous vein using a Telfusion syringe pump (STC-523, Terumo Corporation). A Swan-Ganz catheter was inserted through the left femoral vein. A catheter for coronary angiography was inserted through the left femoral artery. A 5F sheath for arterial blood sampling was placed in the right femoral artery. A catheter for PV-loop analysis was inserted from the left internal carotid artery. An 8F occlusion balloon was placed from the right femoral vein for occlusion testing. In addition, KUS121 was administered from the left common jugular vein.
Beagle dog models of heart failure were prepared by rapid ventricular pacing. Cardiac function was assessed by echocardiography before KUS121 administration and after continuous infusion at 40 mg/h. KUS121 increased LVEF, even if it was based on either of the Teichholz method and the modified-Simpson's method, and increased % FS (FIG. 18). Changes in heart rate, systolic blood pressure, diastolic blood pressure, left ventricular ejection fraction, mean pulmonary artery pressure, pulmonary capillary wedge pressure, left ventricular end-diastolic pressure, and adjusted dp/dt are shown in FIGS. 19 to 21. […]

[2] = 50 mg/kg i.p., before and after administration
[3] = echocardiography, before vs after continuous infusion at 40 mg/h
[4] = infusion per FIG. 17 protocol, cardiac catheterization

## Cc1cc(F)ccc1-c1ccc(/N=N/c2cc(S(=O)(=O)O)c3ccccc3c2N)cn1 [KUS121, 4-amino-3-[6-(4-fluoro-2-methylphenyl)pyridine-3-ylazo]naphthalene-1-sulfonic acid sodium salt]
Mouse models of HFpEF; [2]
  E/A: improved
  E/E′: improved
  Global longitudinal strain (GLS): improved
Mouse models of HFpEF; 50 mg/kg i.p., echocardiography before and 10 minutes after injection
  EF (left ventricular ejection fraction): increased
Mouse models of HFpEF; before and after 50 mg/kg
  blood pressure: lowered the blood pressure
  exercise tolerance (distance traveled in treadmill test): improved the exercise tolerance
  heart rate: slightly lowered the heart rate
[1]; blood samples collected during acute phase
  liver and kidney functions: remained normal
[1]; [3]
  % FS (fractional shortening in left ventricle): increased
  LVEF based on the Teichholz method: increased
  LVEF based on the modified-Simpson's method: increased
[1]; infusion per FIG. 17 protocol
  heart rate: without affecting
  left ventricular diastolic function: improved
  left ventricular systolic function: improved
  systolic blood pressure: without affecting
[1]; [4]
  pulmonary artery pressure: lowered
  pulmonary capillary wedge pressure: lowered

From patent publication US20250057823A1, “COMPOSITION FOR IMPROVING CARDIAC FUNCTION” (Kyoto University, priority 2021, published 2025)
